From patent US20230364194A1, “GLP-1R/GCGR Dual Target Agonist Polypeptide Derivative for Treatment of Hepatic Fibrosis Associated with Viral Hepatitis” (Shenzhen Turier Biotech. Co., Ltd., priority 2020, published 2023) come the findings set out here.

For assay [1], the system named is HBV-infected humanized mouse liver. Description: Hepatic fibrosis of HBV-infected humanized mouse (hepatitis virus-infected humanized mouse fibrosis model). Type of assay: in vivo. Conditions: 40 ug/Kg, intraperitoneal injection, once every other day for 3 weeks; for Accumulation of collagen fibers (FG/SR staining of liver) / Hepatic fibrosis and inflammation level (FG/SR and H&E staining of liver): compared with control group without administration; for Serum ALT: versus before administration. How it is done:
In order to study the effect of the polypeptide compounds of the present invention in hepatic fibrosis associated with viral hepatitis, the polypeptide compounds of the present invention were used for hepatic fibrosis of HBV-infected humanized mouse. […] The specific steps are shown as follows:
Forty newborn NOD-scid IL-2Rγ-/- (NIKO) mice were bred.
These mice were injected with human stem cells for humanization (2 weeks).
Referring to FIG. 10, blood samples were taken to determine the humanization level by flow cytometry. All the mice used in the experiment expressed humanization according to in vivo concentrations of CD4 and CD8.
The mice were divided into 8 groups, fed with high-fat diet and infected with HBV (1 week).
The development of fibrosis in mice was monitored (8-10 weeks).
The polypeptide compounds 2, 5, 11, 15, 20, 23 and 25 were selected, which were stored at -20° C.
The above 40 mice were divided into 8 groups for injection treatment, with grouping and injection administration as follows: blank model control group (CTR), physiological saline, intraperitoneal injection, n=5. • 1) Administration group, polypeptide compound 2, 40 ug/Kg, intraperitoneal injection, n=5. • 2) Administration group, polypeptide compound 5, 40 ug/Kg, intraperitoneal injection, n=5. • 3) Administration group, polypeptide compound 11, 40 ug/Kg, intraperitoneal injection, n=5. • 4) Administration group, polypeptide compound 15, 40 ug/Kg, intraperitoneal injection, n=5. • 5) Administration group, polypeptide compound 20, 40 ug/Kg, intraperitoneal injection, n=5. • 6) Administration group, polypeptide compound 23, 40 ug/Kg, intraperitoneal injection, n=5. • 7) Administration group, polypeptide compound 25, 40 ug/Kg, intraperitoneal injection, n=5.
They were injected once every other day for 3 weeks.
After 3 weeks of administration, the mice were sacrificed to take samples for subsequent bioassay experiments. The serum samples from the mice were used for ALT and human IFNγ tests. Paraffin sections were prepared from partial liver tissues of the mice and stained with hematoxylin-eosin (H&E), […]/Sirius red (FG/SR) and immunohistochemical fluorescence (α-SMA), and statistics were made with Image-pro plus, Graph pad and similar software.
In the HBV induced hepatic fibrosis model, its characteristics are: inflammatory cell infiltration around the central vein area, hydropic degeneration of hepatocytes, and increased accumulation of collagen fibers in the portal area and the hepatic interlobular septum. After 3 weeks of administration, the mice were sacrificed to take samples. Blood was taken from the retrobulbar vein for detection of serological indicators, and liver tissues were taken for pathological analysis.

Assay [2] relates to Hepatic stellate cell strain LX-2. The assay can be described thus: In vitro effect on expression of LX-2 cell activation marker α-SMA (Western Blot, β-actin reference). Type of assay: cell-based. The conditions noted are these: LX-2 cells, 10.0 uM, 48 hours, negative control = 100%. The text has this: Hepatic stellate cell strain LX-2 (from China Center for Type Culture Collection, Shanghai) was selected to study and observe the effects of polypeptide compounds 1-25 on the expression level of LX-2 cell activation marker α-smooth muscle actin (α-SMA). The control group was given the same volume of Dulbecco’s modified Eagle medium (DMEM) (from Gibco, United States), and β-actin (from TransGen Biotech) as the endogenous reference, wherein, α-SMA is a symbolic feature that distinguishes […] from myofibroblasts.
Hepatic stellate cell LX-2 was laid on 35 mm cell culture plate, cultured with DMEM (high glucose)+10% FBS+1% double-antibody culture medium (Thermo Fisher), placed overnight when the cells grew to 70% convergence at 37° C. under the condition of 5% CO2 without serum, and treated with the above GLP-1R/GCGR dual target agonist polypeptide derivatives (namely, polypeptide compounds 1-25) (dissolved in PBS) for 48 hours from the next morning to extract cell protein, and then Western Blot was performed with β-actin as endogenous reference to analyze the expression levels of α-SMA and β-actin by gray-scale analysis using Image J 1.50i. PBS with the same volume as that in experimental group was added in negative control.
The above polypeptide compounds 1-25 with a concentration of 10.0 µM were added, showing that they could reduce the expression of α-SMA at the concentration of 10.0 µM; and the negative control had no effect on the expression of α-SMA (referring to Table 2).
The integrated gray scale of α-SMA/β-actin in the negative control group was considered to be 100% to analyze the in vitro inhibitory activity on hepatic fibrosis by tested polypeptides.
On the technique in general: A western blot detects proteins with antibodies after separation by electrophoresis.

Starred links: 1 amine or outer side, 2 acyl side, 3 side chain; linkers in the order of their positions; H or OH if unused. Non-standard residues stand in square brackets, D forms with d. Groups on a side chain read outwards from the residue. Primed or numbered codes have the meaning given here. No end group written: not given here. *: point of attachment. C18 diacid = O=C(O)CCCCCCCCCCCCCCCCC(=O)*; γGlu = O=C(O)[C@H](CCC(=O)[*:2])N[*:1]; Stearoyl = CCCCCCCCCCCCCCCCCC(=O)*; Palmitoyl = CCCCCCCCCCCCCCCC(=O)*; PEG2′ = not defined here; Aib = CC(C)(N)C(=O)O

“His-(D-Ser)-Gln-Gly-Thr-Phe-Thr-Ser-Asp-Tyr-Ser-Lys-Tyr-Leu-Asp-Glu-Lys-Ala-Ala-Lys(PEG2-PEG2-yGlu- CO(CH2)16CH3)-Glu-Phe-Ile-Glu-Trp-Leu-Leu-Arg-Gly-Gly- Gly-Pro-Ser-Ser-Gly-Ala-Pro-Pro-Pro-Ser-NH2 (H[dS]QGTFTSDYSKYLDEKAAK([PEG2′-PEG2′-γGlu-Stearoyl])EFIEWLLRGGGPSSGAPPPS-NH2) [Compound 11]”: in assay [1], the “α-SMA expression in liver tissues (IF staining)” value (from here on “α-SMA expression”) is listed as “significantly inhibited”; the “Accumulation of collagen fibers (FG/SR staining of liver)” value (shortened to “Accumulation of collagen fibers”) is “significantly inhibited the accumulation of collagen fibers”; the “Hepatic fibrosis and inflammation level (FG/SR and H&E staining of liver)” value (“Hepatic fibrosis and inflammation level” for short) is “decreased the hepatic fibrosis and inflammation level”; the “Serum ALT” value is recorded as “decreased from that before administration”. In addition, in assay [2], the “Relative expression of α-SMA (α-SMA/β-actin, %)” value was determined as 35.78%.
Take “His-(D-Ser)-Gln-Gly-Thr-Phe-Thr-Ser-Asp-Tyr-Ser-Lys-Tyr-Leu-Asp-Lys(PEG2-PEG2-CO(CH2)14CH3)-Arg-Arg-Ala-Gln- Asp-Phe-Val-Gln-Trp-Leu-Leu-Asn-Thr-Gly-Gly-Pro-Ser-Ser-Gly-Ala-Pro-Pro-Pro-Ser-NH2 (H[dS]QGTFTSDYSKYLDK([PEG2′-PEG2′-Palmitoyl])RRAQDFVQWLLNTGGPSSGAPPPS-NH2) [Compound 25]”: in assay [1], the “α-SMA expression” value is “significantly inhibited”; the “Accumulation of collagen fibers” value was “significantly inhibited the accumulation of collagen fibers”; the “Hepatic fibrosis and inflammation level” value was “decreased the hepatic fibrosis and inflammation level”; the “Serum ALT” value is “decreased from that before administration”. Besides, the “Relative expression of α-SMA (α-SMA/β-actin, %)” value in assay [2] worked out at 39.17%.
Regarding “His-(D-Ser)-Gln-Gly-Thr-Phe-Thr-Ser-Asp-Tyr-Ser-Lys-Tyr-Leu-Asp-Glu-Lys(PEG2-PEG2-γGlu-CO(CH2)16CO2H)-Arg- Ala-Gln-Asp-Phe-Val-Gln-Trp-Leu-Met-Asn-Thr-Gly-Gly-Pro-Ser-Ser-Gly-Ala-Pro-Pro-Pro-Ser-NH2 (H[dS]QGTFTSDYSKYLDEK([PEG2′-PEG2′-γGlu-C18 diacid])RAQDFVQWLMNTGGPSSGAPPPS-NH2) [Compound 2]”, in assay [1], the “α-SMA expression” value is reported as “significantly inhibited”; the “Accumulation of collagen fibers” value was “significantly inhibited the accumulation of collagen fibers”; the “Hepatic fibrosis and inflammation level” value is “decreased the hepatic fibrosis and inflammation level”; the “Serum ALT” value was “decreased from that before administration”. For the same substance, the “Relative expression of α-SMA (α-SMA/β-actin, %)” value in assay [2] is listed as 34.65%.
With “His-Aib-Gln-Gly-Thr-Phe-Thr-Ser-Asp-Lys(PEG2-PEG2-yGlu- CO(CH2)16CO2H)-Ser-Lys-Tyr-Leu-Asp-Glu-Arg-Arg-Ala- Gln-Asp-Phe-Val-Gln-Trp-Leu-Leu-Asp-Gly-Gly-Gly-Pro-Ser-Ser-Gly-Ala-Pro-Pro-Pro-Ser-NH2 (H[Aib]QGTFTSDK([PEG2′-PEG2′-γGlu-C18 diacid])SKYLDERRAQDFVQWLLDGGGPSSGAPPPS-NH2) [Compound 5]”, in assay [1], the “α-SMA expression” value is “significantly inhibited”; the “Accumulation of collagen fibers” value was “significantly inhibited the accumulation of collagen fibers”; the “Hepatic fibrosis and inflammation level” value was “decreased the hepatic fibrosis and inflammation level”; the “Serum ALT” value is “decreased from that before administration”. Moreover, the “Relative expression of α-SMA (α-SMA/β-actin, %)” value in assay [2] stood at 37.04%.
Take “His-(D-Ser)-Gln-Gly-Thr-Phe-Thr-Ser-Asp-Tyr-Ser-Lys-Tyr-Leu-Asp-Lys(PEG2-PEG2-yGlu-CO(CH2)14CH3)-Arg-Arg-Ala- Gln-Asp-Phe-Val-Gln-Trp-Leu-Nle-Asn-Thr-Gly-Gly-Pro-Ser-Ser-Gly-Ala-Pro-Pro-Pro-Ser-NH2 (HXQGTFTSDYSKYLDKRRAQDFVQWLXNTGGPSSGAPPPS; D-Ser; Nle; PEG2-PEG2-γGlu-palmitoyl lipidation; C-terminal amide; (2)..(2) Xaa=D-Ser; (16)..(16) A side chain of Lys is linked to -PEG2-PEG2-AGlu-CO(CH2)14CH3; (27)..(27) Xaa=Nle) [Compound 20]”: in assay [1], the “α-SMA expression” value is “significantly inhibited”; the “Accumulation of collagen fibers” value is “significantly inhibited the accumulation of collagen fibers”; the “Hepatic fibrosis and inflammation level” value is “decreased the hepatic fibrosis and inflammation level”; the “Serum ALT” value is listed as “decreased from that before administration”. The “Relative expression of α-SMA (α-SMA/β-actin, %)” value in assay [2] is on record as 32.58%.
Take “His-(D-Ser)-Gln-Gly-Thr-Phe-Thr-Ser-Asp-Tyr-Ser-Lys-Tyr-Leu-Asp-Glu-Lys-Ala-Ala-Lys(PEG2-PEG2-γGlu- CO(CH2)14CH3)-Glu-Phe-Ile-Glu-Trp-Leu-Leu-Asn-Gly-Gly- Gly-Pro-Ser-Ser-Gly-Ala-Pro-Pro-Pro-Ser-NH2 (H[dS]QGTFTSDYSKYLDEKAAK([PEG2′-PEG2′-γGlu-Palmitoyl])EFIEWLLNGGGPSSGAPPPS-NH2) [Compound 15]”: in assay [1], the “α-SMA expression” value was “significantly inhibited”; the “Accumulation of collagen fibers” value is reported as “significantly inhibited the accumulation of collagen fibers”; the “Hepatic fibrosis and inflammation level” value was “decreased the hepatic fibrosis and inflammation level”; the “Serum ALT” value is recorded as “decreased from that before administration”. Also, the “Relative expression of α-SMA (α-SMA/β-actin, %)” value in assay [2] is given as 37.25%.
Turning to “His-(D-Ser)-Gln-Gly-Thr-Phe-Thr-Ser-Asp-Tyr-Ser-Lys-Tyr-Leu-Asp-Glu-Lys-Ala-Ala-Lys(PEG2-PEG2-γGlu- CO(CH2)16CH3)-Glu-Phe-Ile-Glu-Trp-Leu-Leu-Asn-Gly-Gly- Gly-Pro-Ser-Ser-Gly-Ala-Pro-Pro-Pro-Ser-NH2 (H[dS]QGTFTSDYSKYLDEKAAK([PEG2′-PEG2′-γGlu-Stearoyl])EFIEWLLNGGGPSSGAPPPS-NH2) [Compound 14]”, in assay [2], the “Relative expression of α-SMA (α-SMA/β-actin, %)” value was 47.85%.
For the substance “His-(D-Ser)-Gln-Gly-Thr-Phe-Thr-Ser-Asp-Tyr-Ser-Lys-Tyr-Leu-Asp-Lys(PEG2-PEG2-γGlu-CO(CH2)14CH3)-Arg-Arg-Ala- Gln-Asp-Phe-Val-Gln-Trp-Leu-Leu-Asn-Thr-Gly-Gly-Pro-Ser-Ser-Gly-Ala-Pro-Pro-Pro-Ser-NH2 (H[dS]QGTFTSDYSKYLDK([PEG2′-PEG2′-γGlu-Palmitoyl])RRAQDFVQWLLNTGGPSSGAPPPS-NH2) [Compound 23]”, in assay [1], the “α-SMA expression” value is reported as “significantly inhibited”; the “Accumulation of collagen fibers” value is “significantly inhibited the accumulation of collagen fibers”; the “Hepatic fibrosis and inflammation level” value is “decreased the hepatic fibrosis and inflammation level”; the “Serum ALT” value is listed as “decreased from that before administration”. For the same substance, the “Relative expression of α-SMA (α-SMA/β-actin, %)” value in assay [2] worked out at 36.15%.
